In patent US20230391772A1, “METHODS AND COMPOSITIONS FOR TARGETED PROTEIN DEGRADATION” (Ranok Therapeutics (Hangzhou) Co. Ltd., priority 2020, published 2023):

What was measured:
[1] = tested on: MIA PaCa-2 human pancreatic carcinoma; test: MIA PaCa-2 CCK-8 proliferation assay; format: cell-based; details: Homo sapiens, MIA PaCa-2, 72 h, MIA PaCa-2 cells
In short: (§1)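 Proliferation of mutant-KRAS(G12C) cells (2 copies in MIA PaCa-2, single copy in NCI-H358/NCI-H23) measured with CCK-8 after treatment across 20 μM–1.02 nM; inhibition expressed relative to vehicle-treated wells after subtracting no-cell background.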

[2] = tested on: NCI-H358 human non-small cell lung cancer; test: NCI-H358 CCK-8 proliferation assay; format: cell-based; details: NCI-H358 cells, 72 hr
In short: as §1

KRAS(G12C) [3] = target: T1, KRAS(G12C) (Homo sapiens, UniProt P01116, G12C); test: KRAS(G12C) Western blot protein degradation assay in MIA PaCa-2 cells; format: cell-based; design: host or cells: LU65A; details: 48 hr; for inhibition at 0.1562 µM: 156.2 nM; for inhibition at 0.3125 µM: 312.5 nM; for inhibition at 0.625 µM: 625 nM; for inhibition at 1.25 µM: 1250 nM; for inhibition at 2.5 µM: 2500 nM; for inhibition at 5 µM: 5000 nM; for inhibition at 10 µM: 10,000 nM
T1 sequence (P01116 1-188 isoform P01116-2 G12C): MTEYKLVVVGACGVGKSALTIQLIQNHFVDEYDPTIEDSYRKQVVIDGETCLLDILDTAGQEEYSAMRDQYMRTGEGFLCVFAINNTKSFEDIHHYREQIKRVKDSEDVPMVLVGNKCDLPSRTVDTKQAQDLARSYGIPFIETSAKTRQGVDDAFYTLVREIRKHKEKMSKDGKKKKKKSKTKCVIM
Method: The following cancer cell lines were employed: BT-474 human breast carcinoma (ATCC, #HTB-20); MIA PaCa-2 human pancreatic carcinoma [2 copies KRAS(G12C)](ATCC, #CRL-1420); NCI-H23 human non-small cell lung cancer [1 copy KRAS(G12C)](ATCC, #CRL-5800); NCI-H358 human non-small cell lung cancer [1 copy KRAS(G12C)](ATCC, #CRL-5807); LU65A human lung carcinoma (Pharmaron, Beijing, China). Cell lines were cultured essentially according to ATCC and Pharmaron recommendations.
KRAS(G12C) Western Blot Protein Degradation Assay
The MIA PaCa-2 human pancreatic carcinoma cell line and LU65A human lung cancer cell line, which expresses KRAS(G12C), were seeded in 6- or 12-well tissue culture plates, and after 1 hr, test compounds were added at various concentrations and incubated at 37° C./5% CO2 for 48 hr (MIA Paca-2) and 6 hr (LU65A) respectively. Cells were then washed with cold PBS, aspirated and cold RIPA buffer containing a protease/phosphatase inhibitor cocktail was added to lyse cells. After centrifugation, the total protein concentrations of cell lysates were determined using the BCA protein assay. Samples were normalized for equivalent protein concentrations, 5×SDS-PAGE loading buffer added and denatured at 100° C. for 10 min. 20 μl of each sample/well was loaded on a SDS-PAGE gel and electrophoresed for 20 min at 80 V, then 120 V for 1.5 hr. Gels were then electroblotted to nitrocellulose membranes using a wet-transfer method at 250 mA for 2.5 hr. Membranes were incubated with blocking buffer for 1 hr and washed 3 times with TBST for 5 min. Membranes were then incubated with anti-KRAS (Sigma-Aldrich, #SAB1404011) and anti-β-Actin monoclonal antibodies (Cell Signaling Technology, #3700) diluted in blocking buffer at 4° C. overnight per the manufacturer's recommendations. After washing 3 times, blots were incubated with appropriately labeled secondary antibodies for 1 hr at room temperature and washed again. Fluorescence imaging and quantitation was performed using a LI-COR Odyssey. Results was analyzed using GraphPad Prism 7 software. Compound degradation of was determined by the following equation and DC50 values (the concentration at which 50% of the maximal degradation of KRAS occurs) calculated using GraphPad Prism 7 software:
% Inhibition=100−(D−B)/(S−B)*100%. • S: Fluorescence intensity of cells with antibody • D: Fluorescence intensity of compound-treated cells with antibody • B: Fluorescence intensity of cells without antibody

HSP90a protein = target: T2, HSP90a protein (Homo sapiens, UniProt P07900); test: HSP90α-binding fluorescent polarization (FP) assay, FITC-geldanamycin probe; details: FP competition with FITC-geldanamycin, 5 nM, 120 min at 25° C.
T2 construct: purchased BPS Bioscience 50298
Method: HSP90α-Binding Fluorescent Polarization (FP) Assay
Binding of test compounds to HSP90a protein was measured by fluorescent polarization (FP) using the HSP90a (N-terminal) Assay Kit (BPS Bioscience, #50298), following the manufacturer's instructions, except as noted. Fluorescently labeled HSP90-binding compounds, either the provided FITC-geldanamycin (5 nM final concentration) or RNK04010, a triazolone-based HSP90 binding small molecule labeled with BODIPY through a piperizine-phenyl linker (5 nM final concentration) were employed. A 2.5-fold serial dilution of each test compound ranging from 20 μM to 5.2 nM was assayed for binding to HSP90a. After the final step of adding HSP90a protein to each assay well, plates were mixed by brief shaking, incubated at 25° C. for 120 min for FITC-geldanamycin or 300 min for RNK04010, and fluorescence was measured using a PerkinElmer EnVision Plate Reader.

KRAS(G12C) [4] = target: T1, KRAS(G12C); test: KRAS(G12C)/SOS1 homogeneous time-resolved fluorescence (HTRF) assay; design: purchased Cisbio 63ADK000CB16PEG; details: absence of GTP, 4° C. for 3 hr, read-out: KRAS (G12C) binding
In short: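 Three-hour incubation at 4 °C of 3-fold compound dilutions (lowest 1.02 nM) with KRAS(G12C), SOS1 and detection reagents, GTP absent. Disruption of the KRAS(G12C)/SOS1 complex detected by time-resolved fluorescence.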

SMILES	EC50 [1] [nM]	EC50 [2] [nM]	inhibition at 0.1562 µM (KRAS(G12C) [3]) [%]	inhibition at 0.3125 µM (KRAS(G12C) [3]) [%]	inhibition at 0.625 µM (KRAS(G12C) [3]) [%]	inhibition at 1.25 µM (KRAS(G12C) [3]) [%]	inhibition at 2.5 µM (KRAS(G12C) [3]) [%]	inhibition at 5 µM (KRAS(G12C) [3]) [%]	inhibition at 10 µM (KRAS(G12C) [3]) [%]	IC50 (HSP90a protein) [nM]	IC50 (KRAS(G12C) [4]) [nM]
C=CC(=O)N1CCN(c2nc(OC[C@@H]3CCCN3C(=O)C3CCN(Cc4ccc(-n5c(O)nnc5-c5cc(C(C)C)c(O)cc5O)cc4)CC3)nc3c2CCN(c2cccc4cccc(Cl)c24)C3)C[C@@H]1CC#N [Compound 139, 2-((S)-1-acryloyl-4-(7-(8-chloronaphthalen-1-yl)-2-(((S)-1-(1-(4-(3-(2,4-dihydroxy-5-isopropylphenyl)-5-hydroxy-4H-1,2,4-triazol-4-yl)benzyl)piperidine-4-carbonyl)pyrrolidin-2-yl)methoxy)-5,6,7,8-tetrahydropyrido[3,4-d]pyrimidin-4-yl)piperazin-2-yl)acetonitrile]	> 1000	100 to 1000	< 33	< 33	< 33	< 33	< 33	< 33	< 33	100 to 1000	> 1000
C=C(F)C(=O)N1CCN(c2nc(OC[C@@H]3CCCN3C(=O)C3CCN(Cc4ccc(-n5c(O)nnc5-c5cc(C(C)C)c(O)cc5O)cc4)CC3)nc3c2CCN(c2cccc4cccc(Cl)c24)C3)C[C@@H]1CC#N [Compound 144, 2-((S)-4-(7-(8-chloronaphthalen-1-yl)-2-(((S)-1-(1-(4-(3-(2,4-dihydroxy-5-isopropylphenyl)-5-hydroxy-4H-1,2,4-triazol-4-yl)benzyl)piperidine-4-carbonyl)pyrrolidin-2-yl)methoxy)-5,6,7,8-tetrahydropyrido[3,4-d]pyrimidin-4-yl)-1-(2-fluoroacryloyl)piperazin-2-yl)acetonitrile]		> 1000								100 to 1000	
C=C(F)C(=O)N1CCN(c2nc(OC[C@@H]3CCN(C(=O)C4CCN(Cc5ccc(-n6c(O)nnc6-c6cc(C(C)C)c(O)cc6O)cc5)CC4)C3)nc3c2CCN(c2cccc4cccc(Cl)c24)C3)C[C@@H]1CC#N [Compound 145, 2-((S)-4-(7-(8-chloronaphthalen-1-yl)-2-(((R)-1-(1-(4-(3-(2,4-dihydroxy-5-isopropylphenyl)-5-hydroxy-4H-1,2,4-triazol-4-yl)benzyl)piperidine-4-carbonyl)pyrrolidin-3-yl)methoxy)-5,6,7,8-tetrahydropyrido[3,4-d]pyrimidin-4-yl)-1-(2-fluoroacryloyl)piperazin-2-yl)acetonitrile, acetic acid]	100 to 1000	100 to 1000								100 to 1000	
CCC(=O)N1CCN(c2nc(OCC3CN(C(=O)C4CCN(Cc5ccc(-n6c(O)nnc6-c6cc(C(C)C)c(O)cc6O)cc5)CC4)C3)nc3c2CCN(c2cccc4cccc(Cl)c24)C3)C[C@@H]1CC#N [Compound 146, (S)-2-(4-(7-(8-chloronaphthalen-1-yl)-2-((1-(1-(4-(3-(2,4-dihydroxy-5-isopropylphenyl)-5-hydroxy-4H-1,2,4-triazol-4-yl)benzyl)piperidine-4-carbonyl)azetidin-3-yl)methoxy)-5,6,7,8-tetrahydropyrido[3,4-d]pyrimidin-4-yl)-1-propionylpiperazin-2-yl)acetonitrile]		100 to 1000								100 to 1000	
CCC(=O)N1CCN(c2nc(OCC3CCN(C(=O)C4CCN(Cc5ccc(-n6c(O)nnc6-c6cc(C(C)C)c(O)cc6O)cc5)CC4)CC3)nc3c2CCN(c2cccc4cccc(Cl)c24)C3)C[C@@H]1CC#N [Compound 147, (S)-2-(4-(7-(8-chloronaphthalen-1-yl)-2-((1-(1-(4-(3-(2,4-dihydroxy-5-isopropylphenyl)-5-hydroxy-4H-1,2,4-triazol-4-yl)benzyl)piperidine-4-carbonyl)piperidin-4-yl)methoxy)-5,6,7,8-tetrahydropyrido[3,4-d]pyrimidin-4-yl)-1-propionylpiperazin-2-yl)acetonitrile]	100 to 1000	100 to 1000								< 100	
CCC(=O)N1CCN(c2nc(NCCC(=O)NCCc3ccc(CN4CCC(Cc5ccc(-n6c(C(=O)NCC(F)(F)F)nnc6-c6cc(C(C)C)c(O)cc6O)cc5)CC4)cc3)nc3c2CCN(c2cc(O)cc4ccccc24)C3)CC1 [Compound 149]		100 to 1000								100 to 1000	
CCC(=O)N1CCN(c2nc(OCCC(=O)NCCc3ccc(CN4CCC(Cc5ccc(-n6c(C(=O)NCC(F)(F)F)nnc6-c6cc(C(C)C)c(O)cc6O)cc5)CC4)cc3)nc3c2CCN(c2cc(O)cc4ccccc24)C3)CC1 [Compound 151, 5-(2,4-dihydroxy-5-isopropylphenyl)-4-(4-((1-(4-(2-(3-((7-(3-hydroxynaphthalen-1-yl)-4-(4-propionylpiperazin-1-yl)-5,6,7,8-tetrahydropyrido[3,4-d]pyrimidin-2-yl)oxy)propanamido)ethyl)benzyl)piperidin-4-yl)methyl)phenyl)-N-(2,2,2-trifluoroethyl)-4H-1,2,4-triazole-3-carboxamide]		100 to 1000								100 to 1000	
CCC(=O)N1CCN(c2nc(OC[C@@H]3CCN3C(=O)C3CCN(Cc4ccc(-n5c(O)nnc5-c5cc(C(C)C)c(O)cc5O)cc4)CC3)nc3c2CCN(c2cccc4cccc(Cl)c24)C3)C[C@@H]1CC#N [Compound 152, 2-((S)-4-(7-(8-chloronaphthalen-1-yl)-2-(((S)-1-(1-(4-(3-(2,4-dihydroxy-5-isopropylphenyl)-5-hydroxy-4H-1,2,4-triazol-4-yl)benzyl)piperidine-4-carbonyl)azetidin-2-yl)methoxy)-5,6,7,8-tetrahydropyrido[3,4-d]pyrimidin-4-yl)-1-propionylpiperazin-2-yl)acetonitrile, trifluoroacetic acid]		> 1000								< 100	
C=C(F)C(=O)N1CCN(c2nc(OC[C@@H]3CCN(C(=O)C4CCN(Cc5ccc(-n6c(C(=O)NCC(F)(F)F)nnc6-c6cc(C(C)C)c(O)cc6O)cc5)CC4)C3)nc3c2CCN(c2cccc4cccc(Cl)c24)C3)C[C@@H]1CC#N [Compound 168, 4-(4-((4-((R)-3-(((7-(8-chloronaphthalen-1-yl)-4-((S)-3-(cyanomethyl)-4-(2-fluoroacryloyl)piperazin-1-yl)-5,6,7,8-tetrahydropyrido[3,4-d]pyrimidin-2-yl)oxy)methyl)pyrrolidine-1-carbonyl)piperidin-1-yl)methyl)phenyl)-5-(2,4-dihydroxy-5-isopropylphenyl)-N-(2,2,2-trifluoroethyl)-4H-1,2,4-triazole-3-carboxamide]	< 100		< 33	< 33	< 33	33 to 66	33 to 66	33 to 66	33 to 66	100 to 1000	
